Test results as given in patent publication US20230331707A1, “PROGRAMMED CELL NECROSIS INHIBITOR, PREPARATION METHOD THEREFOR, AND USE THEREOF” (Shanghai Institute of Organic Chemistry, Chinese Academy of …, priority 2020, published 2023).

Key:
[1] = test system: TNFα-induced systemic inflammatory response syndrome; assay: TNFα-induced systemic inflammatory response syndrome in mice; assay type: in vivo; details: gavage 2 mg/kg, 20 min before TNFα tail vein injection
Procedure: The adopted biological test scheme was: Tail vein injection of tumor necrosis factor TNFα would lead to the occurrence of systemic inflammatory response syndrome in mice, resulting in decreased body temperature and death. The effect of representative compound QY-10-40 on TNFα-induced systemic inflammatory response syndrome was tested, and the change in body temperature and death of mice were monitored.
Systemic inflammatory response syndrome, also known as inflammatory storm, refers to a systemic non-specific inflammatory response caused by infectious or non-infectious injuries such as severe infection, multiple trauma, burns, ischemia reperfusion, and acute pancreatitis. Under this condition, large amounts of inflammatory factors will release, in severe cases organism will loss the control of inflammatory response, resulting in multi-organ failure and even death.
Methods: The compounds to be tested were dissolved in 0.5% carboxymethyl cellulose according to the required concentration one day in advance, and sonicated overnight. Each mouse was gavaged with 200 μl. 20 min later, […] was injected through the tail vein. Body temperature changes of mice were monitored by infrared thermometer after injection. The effects of the compounds were calculated using Prism Graphpad statistical software.

[2] = test system: RIPK1^K612R/K612R mutant mice; assay: Digestive system inflammation in RIPK1 K612R/K612R mutant mice; assay type: in vivo; details: gavage 25 mg/kg, control Nec-1s 50 mg/kg
Source text: The adopted biological test scheme was: RIPK1^K612R/K612R mutant mice were used as model mice to test the effect of representative compound QY-10-40 or QY-13-19 on spontaneous intestinal inflammation.
K612R mutation leads to decreased in intracellular RIPK1 level but abnormal activation, making it sensitive to programmed necrosis and caspase-1 activation, and responding to TLRs signaling. RIPK1^K612R/K612R mice will appear responses such as age-dependent reduced RIPK1 expression and abnormal activation, spontaneous intestinal inflammation and splenomegaly.
Methods: The compounds to be tested were dissolved in 0.5% carboxymethyl cellulose according to the required concentration one day in advance, and sonicated overnight. Mice were gavaged in a volume of 0.1 ml/10 g body weight. Body weight was measured three times a week, and samples were collected at the end of the experiment. The effect of the compounds was calculated using Prism Graphpad statistical software.

[3] = Liver microsomal stability test, mouse; assay type: in vitro ADME
Source text: (§1) The adopted biological test protocol was: testing the half-life of the compound in human- or mouse-derived liver microsomes.
(§2) Liver microsomes contain many enzymes involved in drug metabolism, especially cytochrome P-450, and therefore it is one of the major tissues involved in drug metabolism in living organisms. There are some correlations between the stability of the compound in liver microsomes and the pharmacogenetic stability thereof in vivo. Therefore, the relative stability of compounds in vivo can be roughly predicted by testing the half-life of different compounds in human- or mouse-derived liver microsomes. The specific methods were as follows:
(§3) Methods: 0.75 μL of 0.5 mM samples (compounds to be tested and control verapamil), 9.38 μL of 20 mg/mL liver microsomes (Human and Mouse) were taken and added to 239.88 μL PBS (on ice), and divided into 30 μL/tube samples respectively. The samples were incubated at 37° C. in a constant temperature water bath for 5 min, and then all samples were taken out. At zero-time, control group was added with 90 μL of ice acetonitrile first, and then added with 15 μL of 3 mM NADPH solution sequentially, and incubated at 37° C. in a constant temperature water bath. The corresponding samples were taken out after 5 min, 10 min, 20 min, 30 min and 60 min, respectively, and quenched by adding 90 μL of ice acetonitrile. All samples were centrifuged at 10000 rpm for 10 min, and the supernatants were taken and placed in a liquid phase vial waiting for LC-MS analysis.

[4] = test system: MEFs cells expressing RIPK1 WT; assay: TSZ-induced programmed necrosis in MEFs cells expressing RIPK1 WT; assay type: cell-based, mouse; details: 600 nM
Source text: (§4) The adopted biological test protocol was: the effect of compounds on programmed necrosis in MEFs cells (mouse embryonic fibroblasts) with RIPK1 S161E mutation.
(§5) In order to verify the inhibitory effect of the compound of the present invention on the highly activated RIPK1 kinase at the cellular level, MEFs cells stably expressing RIPK1 S161E (simulating the activation state of RIPK1 after phosphorylation) were selected, TNFα-SM164-zVAD (Caspase inhibitor for inhibiting apoptosis) (TSZ) was used in combination to induce programmed cell necrosis, and cell viability was calculated by detecting chemiluminescence values, thereby obtaining the biological activity of the compound in inhibiting programmed necrosis.
(§6) Methods: MEFs cells replenished by RIPK1: WT-RIPK1, S161A-RIPK1 and S161E-RIPK1 were replenished in RIPK1 stable knockout cells respectively. After stable expression and being cultured to logarithmic growth phase, the cells were collected, and centrifuged at 1000 rpm for 5 min. The supernatant was discarded. Cell concentration was adjusted to 5×10^4/mL, and cells were inoculated into 384-well plates with 40 μL per well. Cell culture medium diluted SM164 (100 nM), zVAD (50 μM) and compound, each […], were added to the corresponding wells. After pretreatment at 37° C. for 1 h, 5 μL of cell culture medium diluted TNF (50 ng/mL) was added to each well in the stimulated group and 5 μL of culture medium was added to the control group. […] The unstimulated DMSO control wells (Ctrl) were taken as 100% cell viability. EC50 values of the compounds were calculated using Prism Graphpad statistical software.

[5] = Liver microsomal stability test, human; assay type: in vitro ADME
Source text: as §1, §2, §3

[6] = test system: MEFs cells expressing RIPK1 S161E mutant; assay: TSZ-induced programmed necrosis in MEFs cells expressing RIPK1 S161E mutant; assay type: cell-based, mouse; details: 600 nM
Source text: as §4, §5, §6

RIPK1(1-330) protein = biological target: T1, RIPK1(1-330) protein (Homo sapiens, UniProt Q13546); assay: RIPK1(1-330) kinase activity (ADP-Glo); assay type: biochemical; details: read-out: effective semi-inhibitory concentration on RIPK1 kinase
T1 construct: testing the effect of compound QY-10-40 on the kinase activity of RIPK1(1-330) protein; made in house
T1 sequence (Q13546 1-330): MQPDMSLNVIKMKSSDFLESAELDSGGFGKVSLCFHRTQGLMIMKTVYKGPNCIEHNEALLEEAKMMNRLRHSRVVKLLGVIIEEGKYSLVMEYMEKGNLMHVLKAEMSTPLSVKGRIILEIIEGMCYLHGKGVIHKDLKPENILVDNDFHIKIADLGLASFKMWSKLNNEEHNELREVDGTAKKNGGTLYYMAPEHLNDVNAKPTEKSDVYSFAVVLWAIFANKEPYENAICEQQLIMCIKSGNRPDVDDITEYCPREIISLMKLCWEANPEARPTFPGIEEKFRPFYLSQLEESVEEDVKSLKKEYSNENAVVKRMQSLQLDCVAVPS
Procedure: Methods: RIPK1 (1-330) protein with a final concentration of 2 μM and ATP (IX kinase buffer) with a corresponding concentration, final concentration of 5 μL, were added to the 384-well plate, respectively. Each group at least set up triplicate wells and reacted for 2 h at 37° C. 5 μL ADP-Glo reagent was added, which was used to stop kinase reaction and remove residual ATP in reaction system. The plates was placed at room temperature for 40 min. 10 μL kinase detection reagent was added, which was used to convert ADP into ATP and introduce luciferase and luciferin for ATP detection into the system. The reaction was carried out at room temperature for 1 h. 7500 Fast Real-Time PCR System was used to detect luminescence. The IC50 of the compounds inhibiting the kinase reaction was calculated using Prism Graphpad statistical software.

Cn1ncc(C(=O)NCc2ccc(-n3cnc4c(N)ncnc43)cc2)c1Cc1ccccc1 [QY-10-40]
effect on TNFα-induced hypothermia, inflammation response and death [1]: effectively resists against TNFα-induced hypothermia, inflammation response and death
effect on body weight and spleen coefficient [2]: can inhibit the effect of the digestive system inflammation
stability in liver microsomes (in words) ([3]; mouse derived liver microsomes): good stability
T1/2 (min) Mouse ([3]; mouse liver microsomes, NADPH, 37° C.): 69.3 min
inhibition of programmed necrosis [4]: can effectively inhibit the occurrence of programmed necrosis
stability in liver microsomes (in words) ([5]; human derived liver microsomes): good stability
T1/2 (min) Human ([5]; human liver microsomes, NADPH, 37° C.): 40.8 min
inhibition of programmed necrosis [6]: can significantly inhibit occurrence of programmed necrosis
IC50 (RIPK1(1-330) protein): 219 nM
